# From ChEMBL document CHEMBL1133640, “Structure-activity studies including a Psi(CH(2)-NH) scan of peptide YY (PYY) active site, PYY(22-36), for interaction with rat intestinal PYY receptors: development of analogues with potent in vivo activity in the intestine” (J Med Chem, 2000)
# pIC50: −log10 of the molar value. Where a SMILES comes first, the peptide text is derived from it. [ ]: non-standard residue; d: D form. The star is where a group is joined. X1 = C[C@@H](O)[C@@H](CN[C@@H](CCCN=C(N)N)C(=O)N[C@@H](CCC(N)=O)C(=O)N[C@@H](CCCN=C(N)N)C(=O)N[C@@H](Cc1ccc(O)cc1)C(N)=O)N*; X2 = N=C(N)NCCC[C@@H](CN[C@@H](CCC(N)=O)C(=O)N[C@@H](CCCNC(=N)N)C(=O)N[C@@H](Cc1ccc(O)cc1)C(N)=O)N*; Argψ(CH2NH)TyrNH2 = N=C(N)NCCC[C@@H](CN[C@@H](Cc1ccc(O)cc1)C(N)=O)N*; Tic = O=C(O)[C@@H]1Cc2ccccc2CN1
# Tests used:
# [1] = target: Neuropeptide Y receptor type 2 (Rattus norvegicus, UniProt Q9ERC0); assay: Antisecretory potency, affinity for intestinal PYY of rat jejunum by using short circuit current (SCC) method.; type: tissue-based
# Sequence of Neuropeptide Y receptor type 2 (Rattus norvegicus, UniProt Q9ERC0) (Q9ERC0 whole entry): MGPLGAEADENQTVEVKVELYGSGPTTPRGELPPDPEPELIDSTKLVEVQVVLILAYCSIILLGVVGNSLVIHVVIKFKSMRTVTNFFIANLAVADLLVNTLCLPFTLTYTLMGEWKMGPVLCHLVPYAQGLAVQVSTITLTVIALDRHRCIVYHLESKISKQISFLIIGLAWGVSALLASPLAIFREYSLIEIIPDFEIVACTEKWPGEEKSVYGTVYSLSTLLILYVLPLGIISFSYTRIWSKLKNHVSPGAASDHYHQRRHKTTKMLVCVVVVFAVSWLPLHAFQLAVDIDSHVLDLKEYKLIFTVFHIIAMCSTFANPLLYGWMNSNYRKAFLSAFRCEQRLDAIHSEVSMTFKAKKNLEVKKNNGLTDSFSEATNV
# [2] = target: Neuropeptide Y receptor type 1 (Homo sapiens, UniProt P25929); assay: Affinity against Neuropeptide Y receptor Y1 in SK-N-MC cell line; type: cell-based
# Sequence of Neuropeptide Y receptor type 1 (P25929 whole entry): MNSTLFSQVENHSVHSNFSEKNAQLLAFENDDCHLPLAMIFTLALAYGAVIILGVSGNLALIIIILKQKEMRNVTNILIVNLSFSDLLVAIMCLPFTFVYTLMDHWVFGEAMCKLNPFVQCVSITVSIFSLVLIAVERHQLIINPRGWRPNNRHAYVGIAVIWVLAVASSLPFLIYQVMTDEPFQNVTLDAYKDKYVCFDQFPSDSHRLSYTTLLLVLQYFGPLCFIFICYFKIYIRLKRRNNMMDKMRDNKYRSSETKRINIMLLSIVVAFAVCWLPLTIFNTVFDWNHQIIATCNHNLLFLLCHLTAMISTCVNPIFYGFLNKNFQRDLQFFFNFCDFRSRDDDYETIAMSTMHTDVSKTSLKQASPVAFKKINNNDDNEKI
# [3] = target: T1, Neuropeptide Y receptor type 2 (Homo sapiens, UniProt P49146); assay: Affinity against Neuropeptide Y receptor Y2 in SK-N-BE2 cell line
# T1 sequence (P49146 whole entry): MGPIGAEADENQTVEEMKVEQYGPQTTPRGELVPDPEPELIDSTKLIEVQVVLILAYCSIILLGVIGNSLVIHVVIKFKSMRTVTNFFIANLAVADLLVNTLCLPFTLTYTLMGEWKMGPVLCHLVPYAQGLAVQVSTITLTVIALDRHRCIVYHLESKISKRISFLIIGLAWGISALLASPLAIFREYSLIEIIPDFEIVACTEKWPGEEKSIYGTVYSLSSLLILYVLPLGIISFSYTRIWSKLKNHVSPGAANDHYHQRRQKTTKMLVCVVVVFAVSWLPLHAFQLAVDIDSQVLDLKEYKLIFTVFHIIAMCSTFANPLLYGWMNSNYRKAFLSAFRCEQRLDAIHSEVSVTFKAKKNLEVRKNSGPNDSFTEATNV
Molecule,pIC50 [1],pIC50 [2],pIC50 [3]
CC(=O)N[C@@H](C)C(=O)N[C@@H](CO)C(=O)N[C@@H](CC(C)C)C(=O)N[C@@H](CCCN=C(N)N)C(=O)N[C@@H](Cc1c[nH]cn1)C(=O)N[C@@H](Cc1ccc(O)cc1)C(=O)N[C@@H](CC(C)C)C(=O)N[C@@H](CC(N)=O)C(=O)N[C@H](Cc1c[nH]c2ccccc12)C(=O)N[C@H](C(=O)N[C@H](C(=O)N[C@@H](CCCN=C(N)N)C(=O)N[C@@H](CCC(N)=O)C(=O)N[C@@H](CCCN=C(N)N)C(=O)N[C@@H](Cc1ccc(O)cc1)C(N)=O)[C@@H](C)O)C(C)C,< 7.00,7.32,7.25
CCCC[C@H](NC(=O)[C@H](CO)NC(=O)[C@H](C)NC(C)=O)C(=O)N[C@@H](CCCN=C(N)N)C(=O)N[C@@H](Cc1c[nH]cn1)C(=O)N[C@@H](Cc1ccc(O)cc1)C(=O)N[C@@H](CCCC)C(=O)N[C@@H](CC(N)=O)C(=O)N[C@@H](CCCC)C(=O)N[C@@H](CCC)C(=O)N[C@H](C(=O)N[C@@H](CCCN=C(N)N)C(=O)N[C@@H](CCC(N)=O)C(=O)N[C@@H](CCCN=C(N)N)C(=O)N[C@@H](Cc1ccc(O)cc1)C(N)=O)[C@@H](C)O,9.23,5.80,7.24
CC(=O)N[C@@H](C)C(=O)N[C@@H](CO)C(=O)N[C@@H](CC(C)C)C(=O)N[C@@H](CCCNC(=N)N)C(=O)N[C@@H](Cc1cnc[nH]1)C(=O)N[C@@H](Cc1ccc(O)cc1)C(=O)N[C@@H](CC(C)C)C(=O)N[C@@H](CC(N)=O)C(=O)N[C@@H](CC(C)C)C(=O)N[C@H](C(=O)N[C@H](C(=O)N[C@@H](CCCNC(=N)N)C(=O)N[C@@H](CCC(N)=O)C(=O)N[C@@H](CCCNC(=N)N)C(=O)N[C@@H](Cc1ccc(O)cc1)C(N)=O)[C@@H](C)O)C(C)C,9.04,< 6.00,8.89
CCCC[C@H](NC(=O)[C@H](CO)NC(=O)[C@H](C)NC(C)=O)C(=O)N[C@@H](CCCNC(=N)N)C(=O)N[C@@H](Cc1cnc[nH]1)C(=O)N[C@@H](Cc1ccc(O)cc1)C(=O)N[C@@H](CCCC)C(=O)N[C@@H](CC(N)=O)C(=O)N[C@@H](Cc1c[nH]c2ccccc12)C(=O)N[C@@H](CCC)C(=O)N[C@H](C(=O)N[C@@H](CCCNC(=N)N)C(=O)N[C@@H](CCC(N)=O)C(=O)N[C@@H](CCCNC(=N)N)C(=O)N[C@@H](Cc1ccc(O)cc1)C(N)=O)[C@@H](C)O,9.25,6.74,8.43
CC(=O)N[C@@H](C)C(=O)N[C@@H](CO)C(=O)N[C@@H](CC(C)C)C(=O)N[C@@H](CCCN=C(N)N)C(=O)N[C@@H](Cc1c[nH]cn1)C(=O)N[C@H](CN[C@@H](CC(C)C)C(=O)N[C@@H](CC(N)=O)C(=O)N[C@@H](CC(C)C)C(=O)N[C@H](C(=O)N[C@H](C(=O)N[C@@H](CCCN=C(N)N)C(=O)N[C@@H](CCC(N)=O)C(=O)N[C@@H](CCCN=C(N)N)C(=O)N[C@@H](Cc1ccc(O)cc1)C(N)=O)[C@@H](C)O)C(C)C)Cc1ccc(O)cc1,< 7.00,5.90,6.06
CC(=O)N[C@@H](C)C(=O)N[C@@H](CO)C(=O)N[C@@H](CC(C)C)C(=O)N[C@@H](CCCN=C(N)N)C(=O)N[C@@H](Cc1c[nH]cn1)C(=O)N[C@@H](Cc1ccc(O)cc1)C(=O)N[C@H](CN[C@@H](CC(N)=O)C(=O)N[C@@H](CC(C)C)C(=O)N[C@H](C(=O)N[C@H](C(=O)N[C@@H](CCCN=C(N)N)C(=O)N[C@@H](CCC(N)=O)C(=O)N[C@@H](CCCN=C(N)N)C(=O)N[C@@H](Cc1ccc(O)cc1)C(N)=O)[C@@H](C)O)C(C)C)CC(C)C,9.44,5.86,7.26
CC(=O)N[C@@H](C)C(=O)N[C@@H](CO)C(=O)N[C@@H](CC(C)C)C(=O)N[C@@H](CCCNC(=N)N)C(=O)N[C@@H](Cc1cnc[nH]1)C(=O)N1Cc2ccccc2C[C@H]1C(=O)N[C@@H](CC(C)C)C(=O)N[C@@H](CC(N)=O)C(=O)N[C@@H](CC(C)C)C(=O)N[C@H](C(=O)N[C@H](C(=O)N[C@@H](CCCNC(=N)N)C(=O)N[C@@H](CCC(N)=O)C(=O)N[C@@H](CCCNC(=N)N)C(=O)N[C@@H](Cc1ccc(O)cc1)C(N)=O)[C@@H](C)O)C(C)C (Ac-ASLRH[Tic]LNLVTRQRY-NH2),8.47,,6.73

# Other lines, results leading:
pIC50 [1],pIC50 [2],pIC50 [3],Molecule
9.55,5.82,8.86,CC(=O)N[C@@H](C)C(=O)N[C@@H](CO)C(=O)N[C@@H](CC(C)C)C(=O)N[C@@H](CCCNC(=N)N)C(=O)N[C@@H](Cc1cnc[nH]1)C(=O)N[C@@H](Cc1ccc(O)cc1)C(=O)N[C@@H](CC(C)C)C(=O)N[C@@H](CC(N)=O)C(=O)N[C@@H](Cc1c[nH]c2ccccc12)C(=O)N[C@H](C(=O)N[C@H](C(=O)N[C@@H](CCCNC(=N)N)C(=O)N[C@@H](CCC(N)=O)C(=O)N[C@@H](CCCNC(=N)N)CN[C@@H](Cc1ccc(O)cc1)C(N)=O)[C@@H](C)O)C(C)C
< 7.00,6.11,< 5.52,CC(=O)N[C@@H](C)C(=O)N[C@@H](CO)C(=O)N[C@@H](CC(C)C)C(=O)N[C@@H](CCCN=C(N)N)C(=O)N[C@@H](Cc1c[nH]cn1)C(=O)N[C@@H](Cc1ccc(O)cc1)C(=O)N[C@@H](CC(C)C)C(=O)N[C@@H](CC(N)=O)C(=O)N[C@H](CN[C@H](C(=O)N[C@H](C(=O)N[C@@H](CCCN=C(N)N)C(=O)N[C@@H](CCC(N)=O)C(=O)N[C@@H](CCCN=C(N)N)C(=O)N[C@@H](Cc1ccc(O)cc1)C(N)=O)[C@@H](C)O)C(C)C)CC(C)C
8.95,< 6.00,8.98,CC(=O)N[C@@H](C)C(=O)N[C@@H](CO)C(=O)N[C@@H](CC(C)C)C(=O)N[C@@H](CCCNC(=N)N)C(=O)N[C@@H](Cc1cnc[nH]1)C(=O)N[C@@H](Cc1c[nH]c2ccccc12)C(=O)N[C@@H](CC(C)C)C(=O)N[C@@H](CC(N)=O)C(=O)N[C@@H](CC(C)C)C(=O)N[C@H](C(=O)N[C@H](C(=O)N[C@@H](CCCNC(=N)N)C(=O)N[C@@H](CCC(N)=O)C(=O)N[C@@H](CCCNC(=N)N)CN[C@@H](Cc1ccc(O)cc1)C(N)=O)[C@@H](C)O)C(C)C (Ac-ASLRHWLNLVTRQ-{Argψ(CH2NH)TyrNH2})
8.30,5.96,7.28,CC(=O)N[C@@H](C)C(=O)N[C@@H](CO)C(=O)N[C@@H](CC(C)C)C(=O)N[C@@H](CCCN=C(N)N)C(=O)N[C@@H](Cc1c[nH]cn1)C(=O)N[C@@H](Cc1ccc(O)cc1)C(=O)N[C@@H](CC(C)C)C(=O)N[C@@H](CC(N)=O)C(=O)N[C@@H](CC(C)C)C(=O)N[C@H](C(=O)N[C@H](CN[C@@H](CCCN=C(N)N)C(=O)N[C@@H](CCC(N)=O)C(=O)N[C@@H](CCCN=C(N)N)C(=O)N[C@@H](Cc1ccc(O)cc1)C(N)=O)[C@@H](C)O)C(C)C (Ac-ASLRHYLNLV-X1)
< 7.00,5.90,< 5.00,CC(=O)N[C@@H](C)C(=O)N[C@@H](CO)C(=O)N[C@@H](CC(C)C)C(=O)N[C@@H](CCCNC(=N)N)C(=O)N[C@@H](Cc1cnc[nH]1)C(=O)N[C@@H](Cc1ccc(O)cc1)C(=O)N[C@@H](CC(C)C)C(=O)N[C@@H](CC(N)=O)C(=O)N[C@@H](CC(C)C)C(=O)N[C@H](C(=O)N[C@H](C(=O)N[C@@H](CCCNC(=N)N)CN[C@@H](CCC(N)=O)C(=O)N[C@@H](CCCNC(=N)N)C(=O)N[C@@H](Cc1ccc(O)cc1)C(N)=O)[C@@H](C)O)C(C)C (Ac-ASLRHYLNLVT-X2)
,6.56,8.25,Ac-FSLRHFLNLVTRQRY-NH2
